Patent publication US9738604B2, “Ethynylbenzene derivatives” (Duke University, priority 2010, dated 2017)
≈ marks a conversion by molar mass, not a printed value. Where two headings read alike, the source gives them in different places.

Experiments:
[1] = tested on: N. gonorrhoeae 35/02; details: resistance profile of strain 35/02; cited from earlier work
[2] = tested on: E. coli W3110; test: microbe, parasite or virus in culture; type: cell-based; details: for MIC: Escherichia coli, W3110, 22 h, read-out: MIC E. coli W3110
[3] = tested on: E. coli W3110RL; test: microbe, parasite or virus in culture; type: cell-based; details: for MIC: Escherichia coli, W3110RL, 22 h, read-out: MIC E. coli W3110RL; for MIC E. coli W3110RL: E. coli with lpxC of R. leguminosarum, 22 hours at 37° C., MTT
[4] = tested on: P. aeruginosa (PAO1); test: MIC, P. aeruginosa; type: cell-based; details: for MIC: Pseudomonas aeruginosa, PAO1, 22 h, read-out: MIC P. aeruginosa (PAO1); for MIC P. aeruginosa (PAO1): 22 hours at 37° C., MTT
[5] = tested on: E. coli W3110PA; test: microbe, parasite or virus in culture; type: cell-based; details: for MIC: Escherichia coli, W3110PA, 22 h, read-out: MIC E. coli W3110PA; for MIC E. coli W3110PA: E. coli with lpxC of P. aeruginosa, 22 hours at 37° C., MTT
[6] = tested on: N. gonorrhoeae FA19; test: MIC, N. gonorrhoeae drug-sensitive strain; type: cell-based; details: Neisseria gonorrhoeae, read-out: MIC N. gonorrhoeae FA 19
[7] = tested on: N. gonorrhoeae 35/02; test: MIC, N. gonorrhoeae drug-resistant strain; type: cell-based; details: Neisseria gonorrhoeae; drug-resistant strain 35/02
[8] = tested on: Acinetobacter Baumannii antibiotic susceptible strain (Sus. A.b. Isolate); test: Disk diffusion assay, antibiotic susceptible strain; type: cell-based; design: key to diameter of the growth inhibition, Sus. A.b. Isolate: A: no detectable inhibition; B: 6-10 mm; C: 11-15 mm; D: ≧16; details: 2 μg of compound per disc, disc 6 mm in diameter; for zone of inhibition at 2 µg/disc: Acinetobacter baumannii, read-out: diameter of the growth inhibition, Sus. A.b. Isolate
[9] = tested on: Acinetobacter Baumannii multidrug-resistant strain (MDR A.b. Isolate); test: Disk diffusion assay, multidrug-resistant strain; type: cell-based; design: key to diameter of the growth inhibition, MDR A.b. Isolate: A: no detectable inhibition; B: 6-10 mm; C: 11-15 mm; D: ≧16; details: 2 μg of compound per disc, disc 6 mm in diameter; for zone of inhibition at 2 µg/disc: Acinetobacter baumannii, read-out: diameter of the growth inhibition, MDR A.b. Isolate

Row | Compound | MIC [2] [µg/mL] | MIC [3] [µg/mL] | MIC [4] [µg/mL] | MIC [5] [µg/mL] | MIC E. coli W3110 [2] | MIC E. coli W3110RL [3] | MIC P. aeruginosa (PAO1) [4] | MIC E. coli W3110PA [5] | further results
1 | penicillin |  |  |  |  |  |  |  |  | MIC [1]: 6 µg/mL
2 | CC(C)(N)[C@H](NC(=O)c1ccc(C#CC#Cc2ccc(N)cc2)cc1)C(=O)NO [CPD-040, (2S)-3-amino-2-({4′-[4′-(4′-aminophenyl)buta-1′,3′-diyn-1-yl]phenyl}formamido)-N-hydroxy-3-methylbutanamide] | < 1 | 1 to 10 (≈ 2.56 to 25.6 µM) | < 1 | < 1 |  |  |  |  | MIC [6]: 2 to 4 µg/mL (≈ 5.12 to 10.2 µM); MIC [7]: 5 to 7 µg/mL (≈ 12.8 to 17.9 µM); zone of inhibition at 2 µg/disc [8]: 6 to 10 mm; zone of inhibition at 2 µg/disc [9]: 6 to 10 mm
3 | C[C@@H](O)[C@H](NC(=O)c1ccc(C#Cc2ccc(CN3CCOCC3)cc2)cc1)C(=O)NO [drawing 321] |  |  |  |  |  |  |  |  | MIC [6]: 8 µg/mL (≈ 18.3 µM); MIC [7]: 8 µg/mL (≈ 18.3 µM)
4 | CC1(C)S[C@@H]2[C@H](NC(=O)C(C(=O)O)c3ccccc3)C(=O)N2[C@H]1C(=O)O (stereo partly drawn) [Carbenicillin] |  |  |  |  |  |  |  |  | diameter of the growth inhibition, Sus. A.b. Isolate [8]: A; diameter of the growth inhibition, MDR A.b. Isolate [9]: A
5 | Nc1ccc(C#CC#Cc2ccc(C(=O)N[C@@H](Cc3ccc(O)cc3)C(=O)NO)cc2)cc1 [CPD-033, (2S)-2-({4′-[4′-(4′-aminophenyl)buta-1′,3′-diyn-1′-yl]phenyl}formamido)-N-hydroxy-3′-(4′-hydroxyphenyl)propanamide] |  |  |  |  | B (key: A: <1 μg/mL; B: 1-10 μg/mL; C: 11-50 μg/mL; D: 51-100 μg/mL; E: >100 μg/mL) | E (>100 μg/mL) | C (11-50 μg/mL) | B (1-10 μg/mL) | 
6 | C[C@@](O)(C(F)F)[C@H](NC(=O)c1ccc(C#CC#Cc2ccc(N)cc2)cc1)C(=O)NO [CPD-058, 4-((4-aminophenyl)buta-1,3-diynyl)-N-((2S,3S)-4,4-difluoro-3-hydroxy-1-(hydroxyamino)-3-methyl-1-oxobutan-2-yl)benzamide] | < 1 | < 1 | < 1 | < 1 |  |  |  |  | zone of inhibition at 2 µg/disc [8]: 11 to 15 mm; zone of inhibition at 2 µg/disc [9]: 11 to 15 mm
7 | C[C@@H](O)[C@H](NS(=O)(=O)c1ccc(C#CC#Cc2ccc(N)cc2)cc1)C(=O)NO [CPD-039, (2S,3R)-2-({4′-[4′-(4′-aminophenyl)buta-1′,3′-diyn-1′-yl]benzene}sulfonamido)-N,3-dihydroxybutanamide] |  |  |  |  | B (key: A: <1 μg/mL; B: 1-10 μg/mL; C: 11-50 μg/mL; D: 51-100 μg/mL; E: >100 μg/mL) | E (>100 μg/mL) | D (51-100 μg/mL) | D (51-100 μg/mL) | 
8 | Nc1ccc(C#CC#Cc2ccc(C(=O)N[C@@H](CO)C(=O)NO)cc2)cc1 [CPD-027, (2S)-2-({4′-[4′-(4′-aminophenyl)buta-1′,3′-diyn-1′-yl]phenyl}formamido)-N,3-dihydroxypropanamide] |  |  |  |  | A (key: A: <1 μg/mL; B: 1-10 μg/mL; C: 11-50 μg/mL; D: 51-100 μg/mL; E: >100 μg/mL) | C (11-50 μg/mL) | B (1-10 μg/mL) | B (1-10 μg/mL) | 
9 | C[C@@](O)(CF)[C@H](NC(=O)c1ccc(C#CC#Cc2ccc(N)cc2)cc1)C(=O)NO [CPD-061, 4-((4-aminophenyl)buta-1,3-diynyl)-N-((2S,3S)-4-fluoro-3-hydroxy-1-(hydroxyamino)-3-methyl-1-oxobutan-2-yl)benzamide] | < 1 | 51 to 100 (≈ 125 to 244 µM) | 1 to 10 (≈ 2.44 to 24.4 µM) | 1 to 10 (≈ 2.44 to 24.4 µM) |  |  |  |  | 
10 | Nc1ccc(C#CC#Cc2ccc(C(=O)N[C@@H](Cc3c[nH]c4ccccc34)C(=O)NO)cc2)cc1 [CPD-029, (2S)-2-({4′-[4′-(4′-aminophenyl)buta-1′,3′-diyn-1′-yl]phenyl}formamido)-N-hydroxy-3-(1′H-indol-3′-yl)propanamide] |  |  |  |  | B (key: A: <1 μg/mL; B: 1-10 μg/mL; C: 11-50 μg/mL; D: 51-100 μg/mL; E: >100 μg/mL) | E (>100 μg/mL) | E (>100 μg/mL) | E (>100 μg/mL) | 
11 | Polymyxin B |  |  |  |  |  |  |  |  | diameter of the growth inhibition, Sus. A.b. Isolate [8]: B (6-10 mm); diameter of the growth inhibition, MDR A.b. Isolate [9]: B (6-10 mm)
12 | Nc1ccc(C#CC#Cc2ccc(C(=O)NC3CCN(O)C3=O)cc2)cc1 (stereo not drawn) [CPD-043, 4-((4-aminophenyl)buta-1,3-diynyl)-N-(1-hydroxy-2-oxopyrrolidin-3-yl)benzamide] | < 1 | 51 to 100 (≈ 142 to 278 µM) | 51 to 100 (≈ 142 to 278 µM) | 51 to 100 (≈ 142 to 278 µM) |  |  |  |  | 
